The structures appear in SMILES notation.

This passage reports inhibition and IC50 results from patent publication US10172868B2, “Substituted quinazolines for inhibiting kinase activity” (NeuPharma, Inc., priority 2013, dated 2019).

One assay addresses EGFR (ErbB1) (Homo sapiens (Human), UniProt P00533). The assay is described as follows: Z'-LYTE kinase inhibition assay, EGFR. The format is biochemical. Particulars: read-out: % inhibition against EGFR (Compound at 0.041 μM). The procedure, abridged:
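IC50 values derived from 10-point, 3-fold compound dilution series (1% DMSO final) using Z'-LYTE fluorescence readout after 60-min development. Reaction: EGFR (1.1-5.25 ng) with 2 μM peptide, 60 min at room temperature in HEPES pH 7.5 buffer containing MgCl2, MnCl2, EGTA, DTT and BRIJ-35.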

In a further assay the test system is H1975 cells. Kind of assay: Inhibition of cancer cell growth, MTT assay, H1975. Particulars: Homo sapiens, NCI-H1975, 72 h, read-out: IC50 in H1975 cells.
The next assay deals with EGFR (ErbB1) T790M L858R (Homo sapiens (Human), UniProt P00533, L858R/T790M). The assay is described as follows: Z'-LYTE kinase inhibition assay, EGFR L858R/T790M. In kind it is biochemical. Particulars: for inhibition at 0.0137 µM: read-out: % inhibition against EGFR L858R/T790M (Compound at 0.0137 μM); for IC50: read-out: IC50 against EGFR L858R/T790M. The procedure, abridged:
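IC50 taken from 10-point, 3-fold serial dilutions tested in 1% DMSO. The mutant kinase and peptide were prepared in HEPES pH 6.5 buffer with BRIJ-35, MgCl2, EGTA and NaN3, then reacted with ATP for 1 h at room temperature. Development reagent was added for a further hour before the fluorescence readout.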

The subject of another assay is A431 cells. Kind of assay: cells. Particulars: Homo sapiens, A-431, 72 h, read-out: IC50 in A431 cells.
The target in another assay is BTK (Homo sapiens (Human), UniProt Q06187). The assay is described as follows: Z'-LYTE kinase inhibition assay, BTK. In kind it is biochemical. Particulars: compound at 0.041 μM; read-out: % inhibition against BTK. As for the experimental part:
Inhibitory activities of compounds against BTK, EGFR and EGFR mutants (EGFR L858R, EGFR T790M, EGFR L858R/T790M), FGFR1, FGFR2, JAK2, JAK3 and KDR were measured by Invitrogen using Z'-LYTE® Method as briefly described in the following.
Test Compounds are screened in 1% DMSO (final) in the well. For 10 point titrations, 3-fold serial dilutions are conducted from the starting concentration. All ATP Solutions are diluted to a 4× working concentration in Kinase Buffer (50 mM HEPES pH 7.5, 0.01% BRIJ-35, 10 mM MgCl2, 1 mM EGTA). Peptide/Kinase Mixtures are diluted to a 2× working concentration in the appropriate Kinase Buffers as described below.
(v) Peptide/Kinase Mixtures for Measurement of BTK:
The 2×BTK/Tyr 01 mixture is prepared in 50 mM HEPES pH 7.5. 0.01% BRIJ-35, 10 mM MgCl2, 1 mM EGTA.
The mixture is then incubated for another 60-minute at room temperature for development reaction. Finally fluorescence is read by plate reader.
To determine IC50 of a compound against EGFR, EGFR mutant and other kinases, a series of concentrations of the compound were tested for the inhibition. […] The scale utilized in Table 4 is as follows: +++ less than 100 nM, ++ 100-500 nM and + greater than 500 nM.

Sequence of EGFR (ErbB1) (P00533 25-1210): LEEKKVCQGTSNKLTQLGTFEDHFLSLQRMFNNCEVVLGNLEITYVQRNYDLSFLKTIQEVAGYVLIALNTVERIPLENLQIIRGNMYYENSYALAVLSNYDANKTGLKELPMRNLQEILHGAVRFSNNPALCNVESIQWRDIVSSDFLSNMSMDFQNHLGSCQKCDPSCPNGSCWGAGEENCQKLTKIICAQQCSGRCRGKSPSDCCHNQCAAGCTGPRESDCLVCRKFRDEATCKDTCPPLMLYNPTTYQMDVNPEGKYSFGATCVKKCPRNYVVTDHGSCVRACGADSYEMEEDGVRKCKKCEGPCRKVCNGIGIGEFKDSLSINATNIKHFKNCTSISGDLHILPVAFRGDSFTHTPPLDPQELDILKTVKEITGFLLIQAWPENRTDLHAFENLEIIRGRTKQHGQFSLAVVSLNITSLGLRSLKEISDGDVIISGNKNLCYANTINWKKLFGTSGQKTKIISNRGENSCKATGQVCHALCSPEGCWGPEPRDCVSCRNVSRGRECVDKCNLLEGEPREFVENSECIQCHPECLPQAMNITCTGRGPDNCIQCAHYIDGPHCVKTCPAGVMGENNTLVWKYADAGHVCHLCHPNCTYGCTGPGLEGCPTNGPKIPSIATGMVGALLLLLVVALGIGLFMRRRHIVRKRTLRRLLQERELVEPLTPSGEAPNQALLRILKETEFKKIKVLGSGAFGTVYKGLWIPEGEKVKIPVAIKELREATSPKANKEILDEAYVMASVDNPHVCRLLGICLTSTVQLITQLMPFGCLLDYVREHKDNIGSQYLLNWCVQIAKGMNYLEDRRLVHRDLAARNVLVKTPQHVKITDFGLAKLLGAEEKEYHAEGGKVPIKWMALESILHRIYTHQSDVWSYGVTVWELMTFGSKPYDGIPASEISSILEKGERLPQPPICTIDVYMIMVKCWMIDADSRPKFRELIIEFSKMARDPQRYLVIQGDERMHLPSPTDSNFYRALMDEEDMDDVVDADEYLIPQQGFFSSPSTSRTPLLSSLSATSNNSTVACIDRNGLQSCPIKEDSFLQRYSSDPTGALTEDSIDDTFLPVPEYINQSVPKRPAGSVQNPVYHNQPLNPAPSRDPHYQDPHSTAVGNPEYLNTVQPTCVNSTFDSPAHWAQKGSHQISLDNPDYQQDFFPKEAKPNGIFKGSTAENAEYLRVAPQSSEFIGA
Sequence of EGFR (ErbB1) T790M L858R (P00533 25-1210 T790M/L858R): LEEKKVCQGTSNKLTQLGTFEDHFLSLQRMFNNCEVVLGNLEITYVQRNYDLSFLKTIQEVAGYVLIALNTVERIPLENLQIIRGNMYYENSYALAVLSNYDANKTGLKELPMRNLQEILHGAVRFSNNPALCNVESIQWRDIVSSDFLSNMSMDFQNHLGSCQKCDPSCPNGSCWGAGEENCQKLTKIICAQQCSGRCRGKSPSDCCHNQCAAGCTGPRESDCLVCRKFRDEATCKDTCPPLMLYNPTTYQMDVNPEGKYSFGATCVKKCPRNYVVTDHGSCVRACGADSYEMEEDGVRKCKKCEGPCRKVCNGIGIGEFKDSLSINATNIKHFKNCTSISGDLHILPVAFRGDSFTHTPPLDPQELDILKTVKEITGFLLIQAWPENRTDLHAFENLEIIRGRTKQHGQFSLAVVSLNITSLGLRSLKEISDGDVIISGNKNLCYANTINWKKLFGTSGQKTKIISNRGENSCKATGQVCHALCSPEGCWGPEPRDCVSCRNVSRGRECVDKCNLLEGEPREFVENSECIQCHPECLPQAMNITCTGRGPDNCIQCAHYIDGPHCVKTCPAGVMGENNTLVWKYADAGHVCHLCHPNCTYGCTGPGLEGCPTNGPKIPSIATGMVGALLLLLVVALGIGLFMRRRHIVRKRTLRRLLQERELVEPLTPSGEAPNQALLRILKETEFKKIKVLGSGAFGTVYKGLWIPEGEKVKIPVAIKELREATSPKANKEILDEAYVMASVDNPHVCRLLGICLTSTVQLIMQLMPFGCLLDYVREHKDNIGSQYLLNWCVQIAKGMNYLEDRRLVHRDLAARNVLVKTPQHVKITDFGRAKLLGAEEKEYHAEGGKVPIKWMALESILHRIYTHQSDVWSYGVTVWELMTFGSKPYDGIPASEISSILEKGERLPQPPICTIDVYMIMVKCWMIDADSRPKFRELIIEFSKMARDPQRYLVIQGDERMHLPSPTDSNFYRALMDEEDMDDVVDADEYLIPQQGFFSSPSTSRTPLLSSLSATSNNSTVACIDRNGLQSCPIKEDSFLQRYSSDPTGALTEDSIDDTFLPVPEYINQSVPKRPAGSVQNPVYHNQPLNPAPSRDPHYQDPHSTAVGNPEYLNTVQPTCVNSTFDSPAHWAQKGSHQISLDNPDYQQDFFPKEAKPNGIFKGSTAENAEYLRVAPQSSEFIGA
Sequence of BTK (Q06187 whole entry): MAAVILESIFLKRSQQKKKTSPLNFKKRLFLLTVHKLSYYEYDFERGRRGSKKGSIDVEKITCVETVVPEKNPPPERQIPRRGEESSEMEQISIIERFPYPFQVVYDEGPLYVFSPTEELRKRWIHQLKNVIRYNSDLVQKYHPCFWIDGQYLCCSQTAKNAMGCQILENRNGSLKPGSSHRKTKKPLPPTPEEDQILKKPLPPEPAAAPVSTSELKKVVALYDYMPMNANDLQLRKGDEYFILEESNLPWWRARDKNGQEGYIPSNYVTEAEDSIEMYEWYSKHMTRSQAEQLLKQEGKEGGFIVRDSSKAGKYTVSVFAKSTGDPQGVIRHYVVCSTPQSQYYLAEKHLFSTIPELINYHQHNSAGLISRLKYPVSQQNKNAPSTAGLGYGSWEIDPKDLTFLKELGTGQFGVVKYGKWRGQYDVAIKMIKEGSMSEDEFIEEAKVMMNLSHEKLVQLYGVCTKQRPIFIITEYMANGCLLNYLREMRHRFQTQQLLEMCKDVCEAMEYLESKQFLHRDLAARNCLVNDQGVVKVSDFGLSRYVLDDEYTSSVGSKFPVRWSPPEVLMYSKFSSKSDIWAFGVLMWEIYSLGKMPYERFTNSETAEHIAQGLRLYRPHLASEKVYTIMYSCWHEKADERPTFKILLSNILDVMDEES
Description for H1975 cells: Inhibition of cell growth by compounds was measured using MTT assay (Mosmann, T., Journal of Immunological Methods, 1983, 65, 55-63). Tumor cell lines were purchased from ATCC (American Type Culture Collection, Manassas, Va.). All cell lines were maintained in RPMI 1640 (Hyclone) supplemented with 10% fetal bovine serum (FBS, Hyclone), glutamine (2 mM, Hyclone), and antibiotics (penicillin 100 U/mL and streptomycin 50 μg/mL) at 37° C. in a humidified atmosphere of 5% CO2 in air. Taxol (as a positive control. Sigma) and compounds were dissolved in DMSO (Sigma), and the final concentration of DMSO in the medium was 1%. Tumor cells were plated in 96-well plates at densities of about 4000 cells/well of a 96-well plate and allowed to adhere/grow for 24 h. They were then treated with various concentrations of drug for 72 h, 3-(4,5-Dimethylthiazol-2-yl)-2,5-diphenyltetrazolium bromide (MTT, Sigma) was used to determine the number of viable cells at the time of compound addition and the number of cells remaining after 72 h compound exposure. The number of cells remaining after 72 h was compared to the number of viable cells at the time of compound addition by measuring the absorbance at 570 nm, allowing for the calculation of growth inhibition.
All concentrations of compounds were tested in triplicate and controls were averaged over 4 wells. IC50 was calculated by plotting the concentration of compound vs the percentage of inhibition in treated wells using GraphPad Prism 5.

Consider `C=CC(=O)Nc1cccc(-c2cccc3cnc(Nc4ccc(N5CCN(CCF)CC5)cc4)nc23)c1F` [Example C061, N-(2-fluoro-3-(2-((4-(4-(2-fluoroethyl)piperazin-1-yl)phenyl)amino)quinazolin-8-yl)phenyl)acrylamide], for which the inhibition at 0.041 µM on EGFR (ErbB1) is < 50%. Moreover, the IC50 is < 100 nM in the assay with H1975 cells, < 100 nM on EGFR (ErbB1) T790M L858R and > 500 nM in the assay on A431 cells. Moreover, the inhibition at 0.0137 µM on EGFR (ErbB1) T790M L858R is > 50%.

For `C=CC(=O)Nc1cccc(-c2cccc3cnc(Nc4ccc(N5CCN(C)CC5)cc4)nc23)c1OC` [Example C063, N-(2-methoxy-3-(2-((4-(4-methylpiperazin-1-yl)phenyl)amino)quinazolin-8-yl)phenyl)acrylamide], the inhibition at 0.041 µM at EGFR (ErbB1) is > 50%. The IC50 in the assay with H1975 cells was < 100 nM; at EGFR (ErbB1) T790M L858R, < 100 nM; in the assay on A431 cells, > 500 nM. In addition, the inhibition at 0.0137 µM at EGFR (ErbB1) T790M L858R is > 50%.

`C=CC(=O)Nc1cccc(-c2cccc3cnc(Nc4ccc(N5CCN(C)CC5)cc4)nc23)c1C#N` [Example C068, N-(2-cyano-3-(2-((4-(4-methylpiperazin-1-yl)phenyl)amino)quinazolin-8-yl)phenyl)acrylamide]: on EGFR (ErbB1), the inhibition at 0.041 µM is > 50%. Further, the results for the IC50 with H1975 cells, at EGFR (ErbB1) T790M L858R and with A431 cells were 100 to 500 nM, < 100 nM and > 500 nM, respectively. The inhibition at 0.0137 µM at EGFR (ErbB1) T790M L858R was > 50%.

Take `C=CC(=O)Nc1cccc(-c2cccc3cnc(Nc4ccc(N5CCN(C)CC5)c(F)c4)nc23)c1` [Example C069, N-(3-(2-((3-fluoro-4-(4-methylpiperazin-1-yl)phenyl)amino)quinazolin-8-yl)phenyl)acrylamide]: the inhibition at 0.041 µM on EGFR (ErbB1) is > 50%. Moreover, the IC50 in the assay on H1975 cells and with A431 cells was < 100 nM each time. Besides, the inhibition at 0.0137 µM at EGFR (ErbB1) T790M L858R is > 50%.

Turning to `C=CC(=O)Nc1cccc(-c2cccc3cnc(Nc4ccc(N5CCN(C)CC5)c(Cl)c4)nc23)c1` [Example C072, N-(3-(2-((3-chloro-4-(4-methylpiperazin-1-yl)phenyl)amino)quinazolin-8-yl)phenyl)acrylamide], the inhibition at 0.041 µM at EGFR (ErbB1) was < 50%. The IC50 was 100 to 500 nM with H1975 cells, < 100 nM on EGFR (ErbB1) T790M L858R and 100 to 500 nM in the assay with A431 cells. For the same molecule, at EGFR (ErbB1) T790M L858R, the inhibition at 0.0137 µM was > 50%.

Turning to `C=CC(=O)Nc1cccc(-c2cccc3cnc(Nc4ccc(N5CCN(C)CC5)c(C#N)c4)nc23)c1` [Example C074, N-(3-(2-((3-cyano-4-(4-methylpiperazin-1-yl)phenyl)amino)quinazolin-8-yl)phenyl)acrylamide], on EGFR (ErbB1), the inhibition at 0.041 µM was < 50%. Besides, the figures for the IC50 in the assay with H1975 cells, at EGFR (ErbB1) T790M L858R and in the assay with A431 cells were 100 to 500 nM, < 100 nM and 100 to 500 nM, respectively. Also, the inhibition at 0.0137 µM at EGFR (ErbB1) T790M L858R is > 50%.

On to `C=CC(=O)Nc1cccc(-c2cccc3cnc(Nc4ccc(OC5CN(CCF)C5)cc4)nc23)c1` [Example C078, N-(3-(2-((4-((1-(2-fluoroethyl)azetidin-3-yl)oxy)phenyl)amino)quinazolin-8-yl)phenyl)acrylamide], for which the inhibition at 0.041 µM on EGFR (ErbB1) is > 50%. Besides, the IC50 in the assay with H1975 cells is < 100 nM; on EGFR (ErbB1) T790M L858R it was < 100 nM; with A431 cells it was > 500 nM. Further, the inhibition at 0.0137 µM on EGFR (ErbB1) T790M L858R is > 50%.

`C=CC(=O)Nc1cccc(-c2cccc3cnc(Nc4ccc(OC5CCN(C)CC5F)cc4)nc23)c1F` (stereo not shown) [Example C080, N-(2-fluoro-3-(2-((4-((3-fluoro-1-methylpiperidin-4-yl)oxy)phenyl)amino)quinazolin-8-yl)phenyl)acrylamide]: the inhibition at 0.041 µM on EGFR (ErbB1) is > 50%. For the same molecule, the IC50 was < 100 nM with H1975 cells, < 100 nM at EGFR (ErbB1) T790M L858R and 100 to 500 nM in the assay on A431 cells. Besides, the inhibition at 0.0137 µM on EGFR (ErbB1) T790M L858R is > 50%.

For the molecule `C=CC(=O)Nc1cccc(-c2c(F)ccc3cnc(Nc4ccc(N5CCN(C)CC5)cc4)nc23)c1` [Example C087, N-(3-(7-fluoro-2-((4-(4-methylpiperazin-1-yl)phenyl)amino)quinazolin-8-yl)phenyl)acrylamide], on EGFR (ErbB1), the inhibition at 0.041 µM was > 50%. Moreover, the values for the IC50 in the assay on H1975 cells, at EGFR (ErbB1) T790M L858R and with A431 cells were 100 to 500 nM, < 100 nM and 100 to 500 nM, respectively. The inhibition at 0.0137 µM at EGFR (ErbB1) T790M L858R was > 50%.

Regarding `C=CC(=O)Nc1cccc(-c2cccc3cnc(Nc4ccc(N5CCOC5=O)cc4)nc23)c1` [Example C091, N-(3-(2-((4-(2-oxooxazolidin-3-yl)phenyl)amino)quinazolin-8-yl)phenyl)acrylamide], at EGFR (ErbB1), the inhibition at 0.041 µM was < 50%. The IC50 in the assay with H1975 cells is 100 to 500 nM; in the assay on A431 cells it was > 500 nM. In addition, on EGFR (ErbB1) T790M L858R, the inhibition at 0.0137 µM was < 50%.

Take `C=CC(=O)Nc1cccc(-c2cccc3cnc(Nc4ccc(NC5CCOCC5)cc4)nc23)c1` [Example C111, N-(3-(2-((4-((tetrahydro-2H-pyran-4-yl)amino)phenyl)amino)quinazolin-8-yl)phenyl)acrylamide]: the figures for the inhibition at 0.041 µM at BTK and at EGFR (ErbB1) were > 50% and < 50%, respectively. The IC50 in the assay on H1975 cells was < 100 nM. At EGFR (ErbB1) T790M L858R, the inhibition at 0.0137 µM was < 50%.

Turning to `C=CC(=O)Nc1cccc(-c2cccc3cnc(Nc4ccc(OC5CCOCC5)cc4)nc23)c1` [Example C112, N-(3-(2-((4-((tetrahydro-2H-pyran-4-yl)oxy)phenyl)amino)quinazolin-8-yl)phenyl)acrylamide], the inhibition at 0.041 µM on BTK is > 50%; at EGFR (ErbB1) it was < 50%. Further, the IC50 with H1975 cells was < 100 nM. In addition, the inhibition at 0.0137 µM at EGFR (ErbB1) T790M L858R is < 50%.

As to `C=CC(=O)Nc1cccc(-c2cccc3cnc(Nc4ccc(O[C@H]5CCOC5)cc4)nc23)c1` [Example C113, (S)-N-(3-(2-((4-((tetrahydrofuran-3-yl)oxy)phenyl)amino)quinazolin-8-yl)phenyl)acrylamide], the figures for the inhibition at 0.041 µM at BTK and at EGFR (ErbB1) were > 50% and < 50%, respectively. Further, the IC50 in the assay with H1975 cells was < 100 nM. In addition, the inhibition at 0.0137 µM on EGFR (ErbB1) T790M L858R was < 50%.

Consider `C=CC(=O)Nc1cccc(-c2cccc3cnc(Nc4ccc(N[C@H]5CCOC5)cc4)nc23)c1` [Example C114, (S)-N-(3-(2-((4-((tetrahydrofuran-3-yl)amino)phenyl)amino)quinazolin-8-yl)phenyl)acrylamide], for which the inhibition at 0.041 µM on BTK is > 50%; on EGFR (ErbB1) it was < 50%. The IC50 with H1975 cells is < 100 nM. In addition, on EGFR (ErbB1) T790M L858R, the inhibition at 0.0137 µM was < 50%.

Consider `C=CC(=O)Nc1cccc(-c2cccc3cnc(Nc4ccc(N[C@@H]5CCOC5)cc4)nc23)c1` [Example C115, (R)-N-(3-(2-((4-((tetrahydrofuran-3-yl)amino)phenyl)amino)quinazolin-8-yl)phenyl)acrylamide], for which the figures for the inhibition at 0.041 µM on BTK and at EGFR (ErbB1) were > 50% and < 50%, respectively. The IC50 in the assay with H1975 cells fell in the range of 100 to 500 nM. In addition, the inhibition at 0.0137 µM on EGFR (ErbB1) T790M L858R is < 50%.

On to `C=CC(=O)Nc1cccc(-c2cccc3cnc(Nc4ccc(N[C@@H]5CCN(C)C5)cc4)nc23)c1` [Example C129, (R)-N-(3-(2-((4-((1-methylpyrrolidin-3-yl)amino)phenyl)amino)quinazolin-8-yl)phenyl)acrylamide], for which, at EGFR (ErbB1), the inhibition at 0.041 µM was > 50%. The IC50 with H1975 cells, on EGFR (ErbB1) T790M L858R and in the assay with A431 cells was < 100 nM in each case. Moreover, the inhibition at 0.0137 µM on EGFR (ErbB1) T790M L858R was > 50%.

Take `C=CC(=O)Nc1cccc(-c2cccc3cnc(Nc4ccc(OC5CCN(CCF)CC5)cc4)nc23)c1` [Example C136, N-(3-(2-((4-((1-(2-fluoroethyl)piperidin-4-yl)oxy)phenyl)amino)quinazolin-8-yl)phenyl)acrylamide]: the inhibition at 0.041 µM at EGFR (ErbB1) is < 50%. Besides, the IC50 in the assay with H1975 cells and in the assay with A431 cells was < 100 nM throughout. Moreover, the inhibition at 0.0137 µM at EGFR (ErbB1) T790M L858R was > 50%.

With `C=CC(=O)Nc1cccc(-c2cccc3cnc(Nc4ccc(NC5CCN(CCF)CC5)cc4)nc23)c1` [Example C138, N-(3-(2-((4-((1-(2-fluoroethyl)piperidin-4-yl)amino)phenyl)amino)quinazolin-8-yl)phenyl)acrylamide], the inhibition at 0.041 µM on EGFR (ErbB1) was > 50%. For the same molecule, the IC50 was < 100 nM with H1975 cells, < 100 nM at EGFR (ErbB1) T790M L858R and 100 to 500 nM with A431 cells. Further, the inhibition at 0.0137 µM on EGFR (ErbB1) T790M L858R is > 50%.
